Measurements published in ChEMBL document CHEMBL3046206, “Synthesis of new 4-(2,5-dimethylpyrrol-1-yl)/4-pyrrol-1-yl benzoic acid hydrazide analogs and some derived oxadiazole, triazole and pyrrole ring systems: a novel class of potential antibacterial, antifungal and antitubercular agents” (Med Chem Res, 2013).
pIC50: −log10 of the molar value. Converted amounts (≈) assume the structure as drawn.

Columns and labels:
[1] = system: Saccharomyces cerevisiae; assay: Antifungal activity against Saccharomyces cerevisiae after 18 hr by broth microdilution technique; format: functional
[2] = system: A549; assay: Cytotoxicity against Homo sapiens (human) A549 cells after 72 hr by MTT assay; format: cell-based; conditions: A549, 72 h
[3] = system: Candida tropicalis; assay: Antifungal activity against Candida tropicalis after 18 hr by broth microdilution technique; format: functional
[4] = system: Vero; assay: Cytotoxicity against Chlorocebus aethiops (African green monkey) Vero cells after 72 hr by MTT assay; format: cell-based; conditions: Chlorocebus sabaeus
[5] = system: Enterococcus faecalis; assay: Antibacterial activity against Enterococcus faecalis after 18 hr by broth microdilution technique; format: functional
[6] = system: Pseudomonas aeruginosa; assay: Antibacterial activity against Pseudomonas aeruginosa after 18 hr by broth microdilution technique; format: functional
[7] = system: Klebsiella pneumoniae; assay: Antibacterial activity against Klebsiella pneumoniae after 18 hr by broth microdilution technique; format: functional
[8] = system: Mycobacterium tuberculosis; assay: Antimycobacterial activity against Mycobacterium tuberculosis H37Rv after 21 days by broth dilution method; format: functional; conditions: 504 h
[9] = system: Escherichia coli; assay: Antibacterial activity against Escherichia coli after 18 hr by broth microdilution technique; format: functional
[10] = system: Bacillus subtilis; assay: Antibacterial activity against Bacillus subtilis after 18 hr by broth microdilution technique; format: functional
[11] = system: Aspergillus niger; assay: Antifungal activity against Aspergillus niger after 18 hr by broth microdilution technique; format: functional
[12] = system: Staphylococcus aureus; assay: Antibacterial activity against Staphylococcus aureus after 18 hr by broth microdilution technique; format: functional

| SMILES | MIC [1] | pIC50 [2] | MIC [3] | pIC50 [4] | MIC [5] | MIC [6] | MIC [7] | MIC [8] | MIC [9] | MIC [10] | MIC [11] | MIC [12] |
| --- | --- | --- | --- | --- | --- | --- | --- | --- | --- | --- | --- | --- |
| Fc1ccc(-c2nnc(-c3ccc(-n4cccc4)cc3)o2)cc1C(F)(F)F | 4 µg/mL (≈ 10.7 µM) | 3.57 | 2 µg/mL (≈ 5.36 µM) | 3.57 | 8 µg/mL (≈ 21.4 µM) | 2 µg/mL (≈ 5.36 µM) | > 500 µg/mL | 1 µg/mL (≈ 2.68 µM) | 2 µg/mL (≈ 5.36 µM) | 1 µg/mL (≈ 2.68 µM) | 4 µg/mL (≈ 10.7 µM) | 31.2 µg/mL (≈ 83.7 µM) |
| Cc1ccc(C)n1-c1ccc(C(=O)N/N=C/c2cccc([N+](=O)[O-])c2)cc1 | 31.2 µg/mL (≈ 86.2 µM) | – | 16 µg/mL (≈ 44.2 µM) | – | 31.2 µg/mL (≈ 86.2 µM) | 500 µg/mL (≈ 1380 µM) | 500 µg/mL (≈ 1380 µM) | 62.5 µg/mL (≈ 172 µM) | 500 µg/mL (≈ 1380 µM) | 31.2 µg/mL (≈ 86.2 µM) | 16 µg/mL (≈ 44.2 µM) | 31.2 µg/mL (≈ 86.2 µM) |
| O=C(O)c1cn(C2CC2)c2cc(N3CCNCC3)c(F)cc2c1=O [CIPROFLOXACIN] | – | – | – | – | < 5 µg/mL | > 5 µg/mL | ≤ 1 µg/mL | – | ≤ 1 µg/mL | ≤ 1 µg/mL | – | < 5 µg/mL |
| O=C(NNC(=O)c1ccc(-n2cccc2)cc1)c1ccc(Br)cc1 | 31.2 µg/mL (≈ 81.3 µM) | 3.70 | 8 µg/mL (≈ 20.8 µM) | 3.73 | 31.2 µg/mL (≈ 81.3 µM) | 16 µg/mL (≈ 41.6 µM) | > 500 µg/mL | 8 µg/mL (≈ 20.8 µM) | 16 µg/mL (≈ 41.6 µM) | 16 µg/mL (≈ 41.6 µM) | 16 µg/mL (≈ 41.6 µM) | 62.5 µg/mL (≈ 163 µM) |
| O=[N+]([O-])c1ccccc1-c1nnc(-c2ccc(-n3cccc3)cc2)o1 | 31.2 µg/mL (≈ 94 µM) | 3.57 | 31.2 µg/mL (≈ 94 µM) | 3.57 | 16 µg/mL (≈ 48.1 µM) | 4 µg/mL (≈ 12 µM) | > 500 µg/mL | 2 µg/mL (≈ 6.02 µM) | 4 µg/mL (≈ 12 µM) | 4 µg/mL (≈ 12 µM) | 31.2 µg/mL (≈ 94 µM) | 31.2 µg/mL (≈ 94 µM) |
| CC(=O)N1N=C(c2ccc(-n3c(C)ccc3C)cc2)OC1c1ccccc1 (stereo not drawn) | 62.5 µg/mL (≈ 174 µM) | 3.70 | 16 µg/mL (≈ 44.5 µM) | 3.72 | 62.5 µg/mL (≈ 174 µM) | 500 µg/mL (≈ 1390 µM) | 62.5 µg/mL (≈ 174 µM) | 16 µg/mL (≈ 44.5 µM) | 500 µg/mL (≈ 1390 µM) | 16 µg/mL (≈ 44.5 µM) | 31.2 µg/mL (≈ 86.9 µM) | 62.5 µg/mL (≈ 174 µM) |
| NNC(=O)c1ccncc1 [ISONIAZID] | – | < 3.35 | – | < 3.35 | – | – | – | 0.25 µg/mL (≈ 1.82 µM) | – | – | – | – |
| C/C(=N/NC(=O)c1ccc(-n2c(C)ccc2C)cc1)c1ccc(N)cc1 | 62.5 µg/mL (≈ 180 µM) | – | 62.5 µg/mL (≈ 180 µM) | – | 62.5 µg/mL (≈ 180 µM) | 500 µg/mL (≈ 1440 µM) | 500 µg/mL (≈ 1440 µM) | 31.2 µg/mL (≈ 90.2 µM) | 500 µg/mL (≈ 1440 µM) | 62.5 µg/mL (≈ 180 µM) | 62.5 µg/mL (≈ 180 µM) | 31.2 µg/mL (≈ 90.2 µM) |
| O=[N+]([O-])c1ccc(-c2nnc(-c3ccc(-n4cccc4)cc3)o2)cc1 | 31.2 µg/mL (≈ 94 µM) | 3.59 | 31.2 µg/mL (≈ 94 µM) | 3.59 | 16 µg/mL (≈ 48.1 µM) | 4 µg/mL (≈ 12 µM) | > 500 µg/mL | 2 µg/mL (≈ 6.02 µM) | 4 µg/mL (≈ 12 µM) | 4 µg/mL (≈ 12 µM) | 31.2 µg/mL (≈ 94 µM) | 31.2 µg/mL (≈ 94 µM) |
| OC(Cn1cncn1)(Cn1cncn1)c1ccc(F)cc1F [FLUCONAZOLE] | ≤ 1 µg/mL | – | ≤ 1 µg/mL | – | – | – | – | – | – | – | ≤ 1 µg/mL | – |
| Cc1ccc(C)n1-c1ccc(-c2nnc(S)o2)cc1 | 8 µg/mL (≈ 29.5 µM) | 3.60 | 2 µg/mL (≈ 7.37 µM) | 3.58 | 4 µg/mL (≈ 14.7 µM) | 62.5 µg/mL (≈ 230 µM) | 62.5 µg/mL (≈ 230 µM) | 2 µg/mL (≈ 7.37 µM) | 62.5 µg/mL (≈ 230 µM) | 4 µg/mL (≈ 14.7 µM) | 8 µg/mL (≈ 29.5 µM) | 2 µg/mL (≈ 7.37 µM) |
| CC(=O)N1N=C(c2ccc(-n3c(C)ccc3C)cc2)OC1c1cccc([N+](=O)[O-])c1 (stereo not drawn) | 31.2 µg/mL (≈ 77.3 µM) | 3.71 | 8 µg/mL (≈ 19.8 µM) | 3.72 | 31.2 µg/mL (≈ 77.3 µM) | 62.5 µg/mL (≈ 155 µM) | 62.5 µg/mL (≈ 155 µM) | 31.2 µg/mL (≈ 77.3 µM) | 62.5 µg/mL (≈ 155 µM) | 16 µg/mL (≈ 39.6 µM) | 8 µg/mL (≈ 19.8 µM) | 31.2 µg/mL (≈ 77.3 µM) |
| Cc1ccc(C)n1-c1ccc(C(=O)N/N=C/c2ccccc2Cl)cc1 | 31.2 µg/mL (≈ 88.8 µM) | – | 8 µg/mL (≈ 22.7 µM) | – | 31.2 µg/mL (≈ 88.8 µM) | 500 µg/mL (≈ 1420 µM) | 62.5 µg/mL (≈ 178 µM) | 16 µg/mL (≈ 45.5 µM) | 500 µg/mL (≈ 1420 µM) | 8 µg/mL (≈ 22.7 µM) | 16 µg/mL (≈ 45.5 µM) | 16 µg/mL (≈ 45.5 µM) |
| Cc1ccc(C)n1-c1ccc(C(=O)NN)cc1 | 62.5 µg/mL (≈ 273 µM) | – | 62.5 µg/mL (≈ 273 µM) | – | 62.5 µg/mL (≈ 273 µM) | 500 µg/mL (≈ 2180 µM) | 62.5 µg/mL (≈ 273 µM) | 62.5 µg/mL (≈ 273 µM) | 500 µg/mL (≈ 2180 µM) | 62.5 µg/mL (≈ 273 µM) | 62.5 µg/mL (≈ 273 µM) | 62.5 µg/mL (≈ 273 µM) |
| Brc1ccc(-c2nnc(-c3ccc(-n4cccc4)cc3)o2)cc1 | 31.2 µg/mL (≈ 85.3 µM) | 3.58 | 4 µg/mL (≈ 10.9 µM) | 3.58 | 16 µg/mL (≈ 43.7 µM) | 8 µg/mL (≈ 21.8 µM) | > 500 µg/mL | 2 µg/mL (≈ 5.46 µM) | 4 µg/mL (≈ 10.9 µM) | 4 µg/mL (≈ 10.9 µM) | 8 µg/mL (≈ 21.8 µM) | 31.2 µg/mL (≈ 85.3 µM) |
